Results taken from paper PMC6810216, “Human-to-Human Transmission of Influenza A(H3N2) Virus with Reduced Susceptibility to Baloxavir, Japan, February 2019” (Emerging Infectious Diseases, 2019).

Legend:
[1] = target: neuraminidase (NA) of A/Kanagawa/IC18141/2019 (Influenza A virus (H3N2), UniProt A0A193ACB1); type: biochemical
[2] = test system: mutant influenza A(H3N2) viruses encoding the polymerase acidic I38T substitution; conditions: human, in vivo
[3] = test system: A/Kanagawa/IC18141/2019, influenza A(H3N2) virus carrying polymerase acidic I38T substitution; type: cell-based

Row | SMILES | IC50 [1] [µM] | NA inhibitor susceptibility by WHO criteria (fold change in IC50 vs median of same-season isolates) [1] | time to fever resolution after administration [2] | IC50 [3] [µM] | fold higher IC50 value compared with the median IC50 of A(H3N2) viruses of the 2018–19 season [3] [fold]
1 | CCC(CC)[C@H](NC(C)=O)[C@@H]1[C@H](O)[C@@H](C(=O)O)C[C@H]1N=C(N)N [Peramivir, peramivir] | 0.00018 | 0.18 (NI) (key: NI: normal (<10-fold increase); reduced (10–100-fold increase); highly reduced (>100-fold increase)) | – | – | –
2 | O=C1c2c(O)c(=O)ccn2N([C@@H]2c3ccccc3SCc3c2ccc(F)c3F)[C@@H]2COCCN12 [Baloxavir, baloxavir acid] | – | – | within a half day | 0.236 | 186
